Assay: Henry solubility constant Hcp at 298.15 K (mol/(m3 Pa))
Settings: reference: Sanemasa et al. (1982)

Row | SMILES | Henry solubility constant Hcp
1 | Cc1cccc(C)c1C [1,2,3-trimethylbenzene] | 0.0024
2 | Cc1ccc(C)c(C)c1 [1,2,4-trimethylbenzene] | 0.0016
3 | Cc1ccccc1C [1,2-dimethylbenzene] | 0.0019
4 | Cc1cc(C)cc(C)c1 [1,3,5-trimethylbenzene] | 0.0011
5 | Cc1cccc(C)c1 [1,3-dimethylbenzene] | 0.0014
6 | Cc1ccc(C)cc1 [1,4-dimethylbenzene] | 0.0013
7 | CC(C)c1ccccc1 [(2-propyl)-benzene] | 0.00089
8 | c1ccccc1 [benzene] | 0.0017
9 | CCc1ccccc1 [ethylbenzene] | 0.0013
10 | Cc1ccccc1 [methylbenzene] | 0.0015
11 | CCCc1ccccc1 [propylbenzene] | 0.00095

From Sander's compilation of Henry's law constants (doi:10.1246/bcsj.55.1054)
